Assay results from ChEMBL document CHEMBL4177695, “Identification of pyruvate dehydrogenase kinase 1 inhibitors with anti-osteosarcoma activity” (Bioorg Med Chem Lett, 2017).
Activity calls are given as the source filed them. The calls are words filed in the database; no cut-off is given here.

Columns and labels:
[1] = target: T1, [Pyruvate dehydrogenase (acetyl-transferring)] kinase isozyme 1, mitochondrial (Homo sapiens, UniProt Q15118); experiment: Inhibition of PDK1 in human MG63 cells assessed as reduction in pyruvate dehydrogenase complex phosphorylation at ser293 residue after 24 hrs by Western blot analysis; assay type: cell-based
MG-63 [2] = experiment: Potency index, ratio of DCA EC50 to test compound EC50 for human MG63 cells; assay type: functional
[3] = target: [Pyruvate dehydrogenase (acetyl-transferring)] kinase isozyme 2, mitochondrial (Homo sapiens, UniProt Q15119); experiment: Inhibition of recombinant human GST-tagged PDK2 expressed in baculovirus infected Sf9 cells using PDHA1 as substrate measured after 1 hr by ELISA
[4] = target: T1, [Pyruvate dehydrogenase (acetyl-transferring)] kinase isozyme 1, mitochondrial; experiment: Inhibition of PDK1 in human MG63 cells assessed as reduction in pyruvate dehydrogenase complex phosphorylation at ser232 residue after 12 hrs by high content analysis; assay type: cell-based
[5] = target: T1, [Pyruvate dehydrogenase (acetyl-transferring)] kinase isozyme 1, mitochondrial; experiment: Inhibition of PDK1 in human MG63 cells assessed as reduction in pyruvate dehydrogenase complex phosphorylation at ser293 residue after 12 hrs by high content analysis; assay type: cell-based
MG-63 [6] = experiment: Anti-proliferative activity against human MG63 cells after 72 hrs by MTT assay; assay type: functional, cell-based; details: for EC50: MG-63, 72 h
[7] = target: T1, [Pyruvate dehydrogenase (acetyl-transferring)] kinase isozyme 1, mitochondrial; experiment: Inhibition of PDK1 in human MG63 cells assessed as reduction in pyruvate dehydrogenase complex phosphorylation at ser293 residue at 12 uM after 12 hrs by high content analysis relative to control; assay type: cell-based
[8] = target: T1, [Pyruvate dehydrogenase (acetyl-transferring)] kinase isozyme 1, mitochondrial; experiment: Inhibition of PDK1 in human MG63 cells assessed as reduction in pyruvate dehydrogenase complex phosphorylation at ser293 residue at 6 uM after 12 hrs by high content analysis relative to control; assay type: cell-based
[9] = target: T1, [Pyruvate dehydrogenase (acetyl-transferring)] kinase isozyme 1, mitochondrial; experiment: Potency index, ratio of DCA IC50 to test compound IC50 for recombinant human GST-tagged PDK1 expressed in baculovirus infected Sf9 cells
[10] = target: T1, [Pyruvate dehydrogenase (acetyl-transferring)] kinase isozyme 1, mitochondrial; experiment: Inhibition of PDK1 in human MG63 cells assessed as reduction in pyruvate dehydrogenase complex phosphorylation at ser293 residue at 3 uM after 12 hrs by high content analysis relative to control; assay type: cell-based
[11] = target: T1, [Pyruvate dehydrogenase (acetyl-transferring)] kinase isozyme 1, mitochondrial; experiment: Inhibition of recombinant human GST-tagged PDK1 expressed in baculovirus infected Sf9 cells using PDHA1 as substrate measured after 1 hr by ELISA
[12] = target: T1, [Pyruvate dehydrogenase (acetyl-transferring)] kinase isozyme 1, mitochondrial; experiment: Inhibition of recombinant human GST-tagged PDK1 expressed in baculovirus infected Sf9 cells at 10 uM using PDHA1 as substrate measured after 1 hr by ELISA relative to control
[13] = target: T1, [Pyruvate dehydrogenase (acetyl-transferring)] kinase isozyme 1, mitochondrial; experiment: Inhibition of PDK1 in human MG63 cells assessed as reduction in pyruvate dehydrogenase complex phosphorylation at ser232 residue after 24 hrs by Western blot analysis; assay type: cell-based
[14] = target: T1, [Pyruvate dehydrogenase (acetyl-transferring)] kinase isozyme 1, mitochondrial; details: 10 mM
Description: Inhibition of PDK1 in human MG63 cells assessed as reduction in pyruvate dehydrogenase complex phosphorylation at ser232 residue at 10 mM after 12 hrs by high content analysis

[15] = target: T1, [Pyruvate dehydrogenase (acetyl-transferring)] kinase isozyme 1, mitochondrial; details: 10 mM; remark: listed apart in the source
Description: Inhibition of PDK1 in human MG63 cells assessed as reduction in pyruvate dehydrogenase complex phosphorylation at ser232 residue at 10 mM after 24 hrs by Western blot analysis

[16] = target: T1, [Pyruvate dehydrogenase (acetyl-transferring)] kinase isozyme 1, mitochondrial; details: 10 mM; remark: listed apart in the source
Description: Inhibition of PDK1 in human MG63 cells assessed as reduction in pyruvate dehydrogenase complex phosphorylation at ser293 residue at 10 mM after 12 hrs by high content analysis

[17] = target: T1, [Pyruvate dehydrogenase (acetyl-transferring)] kinase isozyme 1, mitochondrial; details: 10 mM; remark: listed apart in the source
Description: Inhibition of PDK1 in human MG63 cells assessed as reduction in pyruvate dehydrogenase complex phosphorylation at ser293 residue at 10 mM after 24 hrs by Western blot analysis

T1 sequence (Q15118 whole entry): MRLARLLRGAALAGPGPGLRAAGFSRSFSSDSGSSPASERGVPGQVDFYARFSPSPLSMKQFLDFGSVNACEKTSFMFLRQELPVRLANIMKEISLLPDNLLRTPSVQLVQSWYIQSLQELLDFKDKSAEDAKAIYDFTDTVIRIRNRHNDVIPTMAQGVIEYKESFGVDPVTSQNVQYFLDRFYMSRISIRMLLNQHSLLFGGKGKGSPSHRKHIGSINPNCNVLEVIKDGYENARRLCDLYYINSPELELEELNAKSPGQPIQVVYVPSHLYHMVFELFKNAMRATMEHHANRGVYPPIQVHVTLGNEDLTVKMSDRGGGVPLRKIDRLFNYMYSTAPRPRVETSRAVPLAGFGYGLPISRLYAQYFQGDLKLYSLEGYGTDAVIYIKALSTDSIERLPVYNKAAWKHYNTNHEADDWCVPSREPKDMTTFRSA

Compound	inhibition [1]	Ratio EC50 (MG-63 [2])	IC50 [3]	inhibition [4]	inhibition [5]	Activity (MG-63 [6])	EC50 (MG-63 [6])	inhibition [7]	inhibition [8]	Ratio IC50 [9]	inhibition [10]	IC50 [11]	inhibition [12]	inhibition [13]	inhibition [14]	inhibition [15]	inhibition [16]	inhibition [17]
COc1ccc(-c2c(C)c3ccc(OCCN4CCN(CCO)CC4)cc3oc2=O)cc1OC	Dose-dependent effect	>1000	5.2 µM	Dose-dependent effect	Dose-dependent effect	Dose-dependent effect	14.5 µM	78.3%	39.7%	> 1000	18.7%	2.97 µM	80.5%	Dose-dependent effect	–	–	–	–
O=C(O)C(Cl)Cl [DICHLOROACETIC ACID]	–	–	9000 µM	–	–	–	15400 µM	–	–	–	–	–	–	–	Active	Active	Active	Active
O=c1c(-c2ccc(Br)cc2)coc2cc(OCCN3CCN(CCO)CC3)ccc12	Dose-dependent effect	>1000	10.9 µM	Dose-dependent effect	Dose-dependent effect	Dose-dependent effect	11 µM	75.3%	49.3%	> 1000	17.6%	3.14 µM	83.3%	Dose-dependent effect	–	–	–	–
